We go through six compounds from PMC11739737 (Clinical Pharmacology and Therapeutics, 2024).

The target of one series is T1, recombinant NNMT protein (Homo sapiens, UniProt P40261).
T1 sequence (P40261 1-264): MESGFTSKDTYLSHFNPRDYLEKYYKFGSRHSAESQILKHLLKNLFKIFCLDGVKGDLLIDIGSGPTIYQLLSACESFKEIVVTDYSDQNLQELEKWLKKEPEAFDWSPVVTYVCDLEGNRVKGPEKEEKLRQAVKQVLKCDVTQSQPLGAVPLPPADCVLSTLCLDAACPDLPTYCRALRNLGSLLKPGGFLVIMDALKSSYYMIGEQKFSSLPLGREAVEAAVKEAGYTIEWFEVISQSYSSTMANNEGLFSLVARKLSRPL
The experiment in a line: NNMT activity assay. The series is classed as biochemical. As to conditions: nicotinamide 100 μM, 37°C, 6 min.

Series [1] is classed as in vivo, human. As to conditions: for Cmax: geometric mean (geometric %CV); for half-life: half‐life after T max.
In series [2] the test system is OCT2 and MATE1/2-K. The experiment in a line: clinical. As to conditions: male, human, in vivo, geometric mean; for AUC(0-t): AUC0–8hour; for CL renal: CLr (0–8 h).
In the next series the target is T2, MATE1 (Homo sapiens, UniProt Q96FL8).
T2 sequence (Q96FL8 1-570): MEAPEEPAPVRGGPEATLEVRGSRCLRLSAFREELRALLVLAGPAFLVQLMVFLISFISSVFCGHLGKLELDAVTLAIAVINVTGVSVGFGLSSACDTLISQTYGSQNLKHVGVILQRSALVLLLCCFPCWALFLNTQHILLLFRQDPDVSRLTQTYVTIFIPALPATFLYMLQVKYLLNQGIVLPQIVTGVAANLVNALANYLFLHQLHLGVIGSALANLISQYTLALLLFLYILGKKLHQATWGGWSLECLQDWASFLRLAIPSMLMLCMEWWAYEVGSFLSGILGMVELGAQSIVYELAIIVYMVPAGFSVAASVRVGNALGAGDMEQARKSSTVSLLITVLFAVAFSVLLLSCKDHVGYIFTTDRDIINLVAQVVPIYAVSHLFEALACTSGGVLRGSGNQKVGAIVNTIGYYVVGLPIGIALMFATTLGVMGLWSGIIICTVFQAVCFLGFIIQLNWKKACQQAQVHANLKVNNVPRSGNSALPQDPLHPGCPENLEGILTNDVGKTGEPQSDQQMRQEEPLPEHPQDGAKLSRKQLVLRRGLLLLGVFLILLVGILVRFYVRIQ
The experiment in a line: Inhibition of MATE1-mediated metformin uptake in MATE1-HEK293 cells. The series is classed as in vitro ADME. As to conditions: K i for MATE1, metformin (10 μM) uptake, 37°C, MATE1-HEK; average of experiments.

For series [3] the following is noted: cited from earlier work.
The target in the next series is T3, OCT2 (Homo sapiens, UniProt O15244).
T3 sequence (O15244 1-555): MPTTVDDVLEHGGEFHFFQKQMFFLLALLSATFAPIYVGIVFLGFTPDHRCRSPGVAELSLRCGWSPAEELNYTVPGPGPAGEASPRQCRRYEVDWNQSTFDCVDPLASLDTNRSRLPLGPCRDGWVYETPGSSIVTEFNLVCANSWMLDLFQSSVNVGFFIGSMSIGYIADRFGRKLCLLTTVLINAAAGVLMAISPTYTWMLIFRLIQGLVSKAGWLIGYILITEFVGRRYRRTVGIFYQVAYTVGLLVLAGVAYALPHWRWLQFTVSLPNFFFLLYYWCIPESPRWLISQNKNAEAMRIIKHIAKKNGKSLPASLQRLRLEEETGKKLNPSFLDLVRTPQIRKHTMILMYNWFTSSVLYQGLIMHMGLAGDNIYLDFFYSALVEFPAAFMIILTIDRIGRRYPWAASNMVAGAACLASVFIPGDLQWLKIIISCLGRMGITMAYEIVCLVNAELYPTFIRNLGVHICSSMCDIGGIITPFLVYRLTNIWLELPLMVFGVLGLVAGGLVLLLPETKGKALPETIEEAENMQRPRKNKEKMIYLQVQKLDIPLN
The experiment in a line: Inhibition of OCT2-mediated metformin uptake in OCT2-HEK293 cells. The series is classed as in vitro ADME. As to conditions: HEK293 cells stably expressing OCT2, pH 7.4, probe metformin (10 μM).

The target in a further series is MATE2‐K (Homo sapiens, UniProt Q86VL8). The experiment in a line: Inhibition of MATE2‐K-mediated metformin uptake in MATE2‐K-HEK293 cells. Type of series: in vitro ADME.
The test system of series [4] is OCT2 and MATE1/2-K. The series is described as follows: clinical. As to conditions: male, human, in vivo; for AUC(0-t): AUC0–24hour, geometric mean; for Cmax: C max of metformin; for Cmax / CL renal: geometric mean (geometric %CV); for CL renal: CLr of metformin (0–24 hour).
The test system of series [5] is OCT2 and MATE1/2‐K. As to conditions: for fe of metformin (fraction recovered in the urine): geometric mean (geometric %CV).
Series [6] relates to OCT2 and MATE1/2‐K. As to conditions: at fifth dose of dolutegravir.
The test system of the next series is OAT1/3. The series is classed as in vivo, human.
Setting [7] is: dolutegravir (fifth) + metformin.
The mark [8] stands for this setting: dolutegravir (first) + metformin.
[9] abbreviates: male, human, plasma, oral, 50 mg.
Where [10] appears, read: 50 mg, with dolutegravir 50 mg BID, fifth dose.
The mark [11] stands for this setting: 50 mg, with dolutegravir 50 mg BID, first dose.

Like-named read-outs stand apart in the source and are kept apart here. Marks after values point to notes of the source that are not given here.

Sequence of MATE2‐K (Q86VL8 1-566 isoform Q86VL8-3): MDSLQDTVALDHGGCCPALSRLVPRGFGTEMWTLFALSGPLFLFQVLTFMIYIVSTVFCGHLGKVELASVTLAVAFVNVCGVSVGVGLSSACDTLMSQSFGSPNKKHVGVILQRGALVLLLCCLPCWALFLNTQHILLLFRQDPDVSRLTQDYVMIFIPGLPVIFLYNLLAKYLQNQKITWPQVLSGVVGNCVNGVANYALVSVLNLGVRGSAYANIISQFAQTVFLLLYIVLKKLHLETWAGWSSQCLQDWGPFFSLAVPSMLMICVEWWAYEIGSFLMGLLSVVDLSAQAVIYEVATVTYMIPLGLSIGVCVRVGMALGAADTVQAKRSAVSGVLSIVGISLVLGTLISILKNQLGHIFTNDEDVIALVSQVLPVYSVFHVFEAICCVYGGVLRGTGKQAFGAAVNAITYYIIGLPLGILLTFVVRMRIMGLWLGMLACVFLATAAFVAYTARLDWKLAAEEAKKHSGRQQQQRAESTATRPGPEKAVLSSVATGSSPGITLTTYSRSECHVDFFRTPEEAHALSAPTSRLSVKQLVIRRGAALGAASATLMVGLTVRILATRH

With `CN/C(=N/CCSCc1nc[nH]c1C)NC#N` [Cimetidine], the “inhibition of the activity of NNMT” value at recombinant NNMT protein (cimetidine 20 μM) is “eliminated the possibility”. Besides, the Cmax in series [1] (male, human, plasma, oral, 800 mg, maximum plasma concentration (C max), cimetidine 800 mg) stood at 25.7 µM. The adverse event result in series [1] (one subject, cimetidine 800 mg (Period 2), judged to have no causal relationship with the study drug) is “Vomiting”.
Consider `CN1CC(=O)NC1=N` [Creatinine, creatinine], for which the AUC(0-t) worked out at 641 µM·h in the series on OCT2 and MATE1/2-K [2] (baseline); 669 µM·h in the series with OCT2 and MATE1/2-K [2] (cimetidine 400 mg + metformin); 689 µM·h in the series with OCT2 and MATE1/2-K [2] (cimetidine 800 mg + metformin); 600 µM·h with OCT2 and MATE1/2-K [2] (control (metformin alone)); 691 µM·h with OCT2 and MATE1/2-K [2] (setting [7]); 712 µM·h in the series on OCT2 and MATE1/2-K [2] (setting [8]).
Consider `C[C@@H]1CCO[C@H]2Cn3cc(C(=O)NCc4ccc(F)cc4F)c(=O)c(O)c3C(=O)N12` [Dolutegravir], for which the results for the inhibitory constant (Ki) on MATE1 and on MATE2‐K were 830 nM and 2970 ± 400 nM, respectively. For the same compound, the “elimination half‐life” value in series [3] was 13 to 14 h. In addition, on OCT2, the inhibition constant Ki at 2 min came out at 290 ± 40 nM. Besides, the “inhibition of the activity of NNMT” value on recombinant NNMT protein (dolutegravir 30 μM) is recorded as “eliminated the possibility”. This compound also gave an AUC in [1] (setting [9]) of 209 µM·h. In series [1] (setting [9]), the AUC(0-inf) was 141 µM·h. In addition, the peak concentration (Cmax) in series [1] (male, human, plasma, oral, 50 mg, C max up to 12 hours after metformin administration, dolutegravir 50 mg BID, fifth dose) amounted to 21.7 µM; in series [1] (male, human, plasma, oral, 50 mg, C max up to 12 hours after metformin administration, dolutegravir 50 mg BID, first dose) it was 7.07 µM. The half-life in series [1] (male, human, plasma, oral, 50 mg, dolutegravir 50 mg BID, fifth dose) was 16.6 ± 1.7 h; in series [1] (male, human, plasma, oral, 50 mg, dolutegravir 50 mg BID, first dose) it was 13 ± 1.1 h.
As for `CN(C)C(=N)N=C(N)N` [Metformin], the exposure AUC(0-t) in the series on OCT2 and MATE1/2-K [4] (setting [10]) was 213 µM·h; in the series on OCT2 and MATE1/2-K [4] (setting [11]), 123 µM·h; in the series with OCT2 and MATE1/2-K [4] (800 mg, with cimetidine 800 mg), 154 µM·h. Further, the peak concentration (Cmax) in the series with OCT2 and MATE1/2-K [4] (setting [10]) was 23.8 µM; in the series with OCT2 and MATE1/2-K [4] (setting [11]) it was 17 µM; with OCT2 and MATE1/2-K [4] (800 mg, with cimetidine 800 mg), 28 µM. In addition, the CL renal was found to be 199 mL/min in the series with OCT2 and MATE1/2-K [4] (setting [10]); 339 mL/min with OCT2 and MATE1/2-K [4] (setting [11]); 269 mL/min in the series with OCT2 and MATE1/2-K [4] (800 mg, with cimetidine 800 mg). Further, the “decrease of CLr of metformin” value in the series on OCT2 and MATE1/2‐K [5] (cimetidine 400 mg) is reported as 15.5%; in the series on OCT2 and MATE1/2‐K [5] (cimetidine 800 mg) it was 42.5%; with OCT2 and MATE1/2‐K [5] (dolutegravir fifth dose), 56.9%; in the series on OCT2 and MATE1/2‐K [5] (dolutegravir first dose), 26.8%. Also, the “increase of AUC of metformin” value in the series with OCT2 and MATE1/2‐K [5] (cimetidine 400 mg) is recorded as 1.7 times; with OCT2 and MATE1/2‐K [5] (cimetidine 800 mg) it was 2.2 times; in the series with OCT2 and MATE1/2‐K [5] (fifth dose of dolutegravir) it was 3.0 times; in the series with OCT2 and MATE1/2‐K [5] (first dose of dolutegravir) it was 1.8 times. Besides, the “increase of C max of metformin” value with OCT2 and MATE1/2‐K [5] (co‐administration of cimetidine 400 mg) is 2.1 times; with OCT2 and MATE1/2‐K [5] (co‐administration of cimetidine 800 mg) it was 2.7 times; in the series on OCT2 and MATE1/2‐K [5] (fifth dose of dolutegravir) it was 2.3 times; in the series with OCT2 and MATE1/2‐K [5] (first dose of dolutegravir), 1.6 times. Also, the “fe of metformin (fraction recovered in the urine)” value with OCT2 and MATE1/2‐K [5] (metformin 500 mg alone (control)) is given as 0.649 (13.7); in the series with OCT2 and MATE1/2‐K [5] (with cimetidine 400 mg) it was 0.940 (13.9)***; in the series on OCT2 and MATE1/2‐K [5] (with cimetidine 800 mg), 0.826 (22.1)**; in the series with OCT2 and MATE1/2‐K [5] (with dolutegravir 50 mg BID, fifth dose), 0.844 (20.7)**; in the series on OCT2 and MATE1/2‐K [5] (with dolutegravir 50 mg BID, first dose), 0.828 (20.6)**.
With `Cn1cnc2c(ncn2[C@@H]2O[C@H](CO)[C@@H](O)[C@H]2O)c1=N` [m^1A, N1‐methyladenosine], in the series with OCT2 and MATE1/2‐K [6], the “clearance for tubular secretion remaining (CLr minus creatinine CLr)” value amounted to 29%. The AUC(0-t) was determined as 0.822 µM·h in the series with OCT2 and MATE1/2-K [2] (baseline); 0.918 µM·h in the series with OCT2 and MATE1/2-K [2] (cimetidine 400 mg + metformin); 0.984 µM·h with OCT2 and MATE1/2-K [2] (cimetidine 800 mg + metformin); 0.791 µM·h with OCT2 and MATE1/2-K [2] (control (metformin alone)); 1.12 µM·h with OCT2 and MATE1/2-K [2] (setting [7]); 0.977 µM·h with OCT2 and MATE1/2-K [2] (setting [8]). Also, the CL renal is 188 mL/min with OCT2 and MATE1/2-K [2] (baseline); 198 mL/min with OCT2 and MATE1/2-K [2] (cimetidine 400 mg + metformin); 159 mL/min in the series with OCT2 and MATE1/2-K [2] (cimetidine 800 mg + metformin); 198 mL/min in the series with OCT2 and MATE1/2-K [2] (control (metformin alone)).
As for `Cc1ncc(CO)c(C(=O)O)c1O` [pyridoxic acid], the “magnitude of inhibition of CLr” value in the series with OAT1/3 (at fifth dose of dolutegravir) is given as “at most 21%”. In the series with OAT1/3 (with cimetidine), the “change in CLr” value is “no change”.

For orientation: Cmax means the maximum level reached in the sampled fluid or tissue. One may read the AUC(0-t) as the area under the concentration-time curve up to a stated or last time point. What is called Ki is a dissociation constant, usually derived from enzyme kinetics or from competition with a known ligand. A higher Ki goes with a looser hold on the target. The term AUC denotes concentration integrated over time. A low value points to less exposure. The AUC(0-inf) is total exposure, with the tail of the curve extrapolated. Usually half-life stands for how long it takes for the measured level to halve. The low end stands for fast loss, the high end for slow loss.
